Reference: ChEMBL document CHEMBL1138685, “Molecular recognition in purinergic receptors. 2. Diastereoselectivity of the h-P2Y1-receptor” (J Med Chem, 2004)

Molecular target: P2Y purinoceptor 1 (Homo sapiens) (UniProt P47900)
Test: Concenthumanion required for calcium mobilization at human purinergic 2Y1 receptor expressed in HEK 293 cells

P2Y purinoceptor 1 (Homo sapiens), sequence (P47900 whole entry, looked up): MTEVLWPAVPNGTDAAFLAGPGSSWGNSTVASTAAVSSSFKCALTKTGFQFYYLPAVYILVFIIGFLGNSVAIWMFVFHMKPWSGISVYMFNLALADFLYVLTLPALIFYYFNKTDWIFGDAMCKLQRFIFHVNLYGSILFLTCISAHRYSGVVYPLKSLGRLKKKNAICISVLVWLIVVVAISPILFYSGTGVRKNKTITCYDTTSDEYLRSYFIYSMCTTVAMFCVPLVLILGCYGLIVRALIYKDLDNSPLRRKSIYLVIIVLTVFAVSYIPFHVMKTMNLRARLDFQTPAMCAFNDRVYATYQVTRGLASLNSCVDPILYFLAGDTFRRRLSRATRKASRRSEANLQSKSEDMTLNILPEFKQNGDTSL

EC50 [nM] | SMILES
20 | CSc1nc(N)c2ncn(C3O[C@H](CO[P@@](O)(=S)OP(=O)(O)OP(=O)(O)O)[C@@H](O)[C@H]3O)c2n1 (stereo partly specified)
1 | CSc1nc(N)c2ncn([C@@H]3O[C@H](COP(=O)(O)OP(=O)(O)OP(=O)(O)O)[C@@H](O)[C@H]3O)c2n1
1 | CSc1nc(N)c2ncn(C3O[C@H](CO[P@](O)(=S)OP(=O)(O)OP(=O)(O)O)[C@@H](O)[C@H]3O)c2n1 (stereo partly specified)
53 | BP(=O)(OC[C@H]1O[C@@H](n2cnc3c(N)nc(SC)nc32)[C@H](O)[C@@H]1O)OP(=O)(O)OP(=O)(O)O (stereo partly specified)

SMILES | EC50 [nM]
Nc1ncnc2c1ncn2C1O[C@H](CO[P@@](O)(=S)OP(=O)(O)OP(=O)(O)O)[C@@H](O)[C@H]1O (stereo partly specified) | 75
Nc1ncnc2c1ncn2C1O[C@H](CO[P@](O)(=S)OP(=O)(O)OP(=O)(O)O)[C@@H](O)[C@H]1O (stereo partly specified) | 9.4
